Some test systems named below: A498; CCRF-CEM; COLO 205; EKVX; HCT-15; HOP-62; Hs-578T; MDA-MB-435; MOLT-4; NCI-H226; NCI-H23; NCI/ADR-RES; RPMI-8226; SK-MEL-2; SK-OV-3; SN12C; SR; SW-620; UACC-257; LXFL 529.
Test in all cases: DTP human tumour cell line panel, 48 h

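Compound exposure: 48 hours, 5 concentrations, 96-well plates. GI50 marks 50% less growth.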 The source made the active and inactive calls. No stated cut-off is given here; in the data, active = GI50 up to about 1.1 µM and inactive = higher. Where only a bound is given, the exact number is not on record here.

The record followed here is ChEMBL document CHEMBL1201862, “PubChem BioAssay data set” (2004).

The GI50 is the concentration that inhibits growth by half.

In the case of `CCOC(=O)c1c(SCCN2CCCC2)n(-c2ccccc2)c(=S)n(-c2ccccc2)c1=O`, the GI50 in the experiment with A498 is 10.4 µM (inactive); with CCRF-CEM it was 0.951 µM (active); in the experiment with COLO 205, 1.84 µM (inactive); in the experiment on EKVX, 13.9 µM (inactive); in the experiment on HCT-15, 2.21 µM; in the experiment with HOP-62 it was 18.5 µM (inactive). Also, the GI50 in the experiment on Hs-578T was 4.7 µM (inactive); in the experiment on MDA-MB-435, 2.55 µM (inactive); with MOLT-4, 1.65 µM (inactive); with NCI-H226, 16.8 µM (inactive); with NCI-H23 it was 9.57 µM (inactive); with NCI/ADR-RES, 25.8 µM (inactive). In addition, the GI50 is 2.18 µM (inactive) in the experiment with RPMI-8226; 11.4 µM (inactive) with SK-MEL-2; 18.1 µM (inactive) with SK-OV-3; 1.71 µM (inactive) with SN12C; 0.457 µM (active) with SR; 2.6 µM (inactive) in the experiment with SW-620. For the same compound, in the experiment with UACC-257, the GI50 was 1.69 µM (inactive).

Regarding `C=CCN(N=O)C(=O)N(CCCCC(NC(C)=O)C(=O)NCc1ccccc1)Cc1ccccc1` (centres undefined), the GI50 with A498 is 42.9 µM (inactive); in the experiment with CCRF-CEM, 28.2 µM (inactive); in the experiment with COLO 205, 23.8 µM (inactive); with EKVX, 38.1 µM (inactive); in the experiment with HCT-15 it was 39.9 µM; in the experiment on HOP-62 it was 57.9 µM (inactive). Also, the GI50 was 31.1 µM (inactive) in the experiment with LXFL 529; 13.8 µM (inactive) with MOLT-4; 25.4 µM (inactive) with NCI-H226; 46.5 µM (inactive) in the experiment on NCI-H23; 16.1 µM (inactive) in the experiment with RPMI-8226; 37.1 µM (inactive) in the experiment with SK-MEL-2. The GI50 with SK-OV-3 is > 100 µM (inactive); in the experiment with SN12C it was 41.5 µM (inactive); in the experiment on SW-620, 33.8 µM (inactive); in the experiment on UACC-257, 36.1 µM (inactive).

Turning to `O=C1NC(=O)C2C(=O)NC(=O)C1C2(c1ccccc1)c1cc[nH]c1` (centres undefined), the GI50 with A498 was > 100 µM (inactive); in the experiment on CCRF-CEM, > 100 µM (inactive); in the experiment with COLO 205, > 100 µM (inactive); with EKVX it was > 100 µM (inactive); in the experiment on HCT-15, over 100 µM; with HOP-62, > 100 µM (inactive). For the same compound, the GI50 with LXFL 529, in the experiment on MOLT-4, in the experiment on NCI-H226, in the experiment with NCI-H23, in the experiment with RPMI-8226 and in the experiment on SK-MEL-2 was > 100 µM (inactive) in each case. Also, the GI50 in the experiment on SK-OV-3, in the experiment on SN12C, in the experiment with SW-620 and with UACC-257 was > 100 µM (inactive) in each case.

On to `O=C(Nc1nc(C23CC4CC(CC(C4)C2)C3)cs1)c1cc2cc(Br)cc(Br)c2oc1=O`, for which the GI50 was > 100 µM (inactive) in the experiment with A498; 27.7 µM (inactive) with CCRF-CEM; > 100 µM (inactive) in the experiment with COLO 205; 39.4 µM (inactive) with EKVX; over 100 µM with HCT-15; 70.8 µM (inactive) in the experiment on HOP-62. Besides, the GI50 in the experiment on Hs-578T is 27.4 µM (inactive); in the experiment with MDA-MB-435, 67.5 µM (inactive); with MOLT-4, 50.1 µM (inactive); in the experiment on NCI-H226 it was 33.2 µM (inactive); in the experiment on NCI-H23, > 100 µM (inactive); with NCI/ADR-RES it was > 100 µM (inactive). Moreover, the GI50 in the experiment on RPMI-8226 was 67.9 µM (inactive); in the experiment on SK-MEL-2, 51.5 µM (inactive); in the experiment on SK-OV-3, > 100 µM (inactive); in the experiment on SN12C it was 31.8 µM (inactive); with SR, 32.3 µM (inactive); in the experiment with SW-620, 43.2 µM (inactive). Besides, the GI50 in the experiment with UACC-257 is > 100 µM (inactive).

As to `c1ccc(Nc2nnc(Cn3ccc4ccccc43)s2)cc1`, the GI50 is > 100 µM (inactive) in the experiment on A498; 49.3 µM (inactive) in the experiment on CCRF-CEM; 45.1 µM (inactive) in the experiment on COLO 205; 50.8 µM (inactive) with EKVX; 38.5 µM in the experiment on HCT-15; 29.9 µM (inactive) in the experiment with HOP-62. The GI50 is 65.6 µM (inactive) in the experiment on Hs-578T; 83.2 µM (inactive) with MDA-MB-435; 23.1 µM (inactive) in the experiment on MOLT-4; 58.3 µM (inactive) in the experiment on NCI-H226; > 100 µM (inactive) in the experiment with NCI-H23; 34.6 µM (inactive) with NCI/ADR-RES. Besides, the GI50 is 48.5 µM (inactive) in the experiment with RPMI-8226; > 100 µM (inactive) in the experiment on SK-MEL-2; > 100 µM (inactive) in the experiment on SK-OV-3; > 100 µM (inactive) with SN12C; 12.8 µM (inactive) in the experiment on SR; 87.3 µM (inactive) with SW-620. Besides, in the experiment with UACC-257, the GI50 is > 100 µM (inactive).

Consider `CCN1CCN(c2ccc(Nc3ccnc4ccc5nn(C)nc5c34)cc2)CC1`, for which the GI50 is > 100 µM (inactive) with CCRF-CEM; 5.08 µM (inactive) in the experiment on COLO 205; 13.8 µM with HCT-15; 13.1 µM (inactive) in the experiment on HOP-62; 10.7 µM (inactive) in the experiment on LXFL 529; 4.5 µM (inactive) in the experiment with MOLT-4. Also, the GI50 in the experiment on NCI-H226 was 12.3 µM (inactive); in the experiment with NCI-H23, 15.4 µM (inactive); in the experiment on RPMI-8226, 7.08 µM (inactive); in the experiment on SK-OV-3, 13.8 µM (inactive); with SN12C, 10.7 µM (inactive); in the experiment with SR, 4.22 µM (inactive). For the same compound, the GI50 is 4.22 µM (inactive) in the experiment on SW-620 and 16.6 µM (inactive) in the experiment on UACC-257.

`O=C1CC[C@H]2CNC(=O)C[C@H]2C1`: the GI50 was > 100 µM (inactive) in the experiment on A498; > 100 µM (inactive) in the experiment with CCRF-CEM; > 100 µM (inactive) in the experiment on COLO 205; > 100 µM (inactive) in the experiment with EKVX; over 100 µM in the experiment with HCT-15; > 100 µM (inactive) in the experiment on HOP-62. Besides, the GI50 in the experiment on LXFL 529, in the experiment on MOLT-4, in the experiment on NCI-H23, with RPMI-8226, in the experiment on SK-MEL-2 and in the experiment on SK-OV-3 was > 100 µM (inactive) in each case. Moreover, the GI50 in the experiment on SN12C, in the experiment on SW-620 and in the experiment with UACC-257 was > 100 µM (inactive) each time.

Regarding `O=C(Cc1ccccc1[N+](=O)[O-])C(CO)c1ccccc1[N+](=O)[O-]` (centres undefined), the GI50 in the experiment with A498 is 80.4 µM (inactive); with CCRF-CEM, 71.4 µM (inactive); in the experiment with COLO 205 it was > 100 µM (inactive); in the experiment on EKVX, 70.6 µM (inactive); in the experiment on HCT-15, over 100 µM; with HOP-62, > 100 µM (inactive). Moreover, the GI50 in the experiment with LXFL 529 was 57.1 µM (inactive); in the experiment on MOLT-4 it was 35.7 µM (inactive); with NCI-H226 it was 15.6 µM (inactive); with NCI-H23, 45.3 µM (inactive); in the experiment with RPMI-8226, 78.7 µM (inactive); with SK-MEL-2 it was > 100 µM (inactive). Besides, the GI50 in the experiment on SK-OV-3 is > 100 µM (inactive); with SN12C it was > 100 µM (inactive); in the experiment on SW-620, > 100 µM (inactive); in the experiment with UACC-257, 72.3 µM (inactive).

Turning to `COC(=O)/C(=N\Nc1nnc(C)n1N)C(C#N)c1ccc(Cl)cc1` (centres undefined), the GI50 in the experiment on A498 was > 100 µM (inactive); with COLO 205, 95.1 µM (inactive); with EKVX, > 100 µM (inactive); in the experiment on HCT-15, over 100 µM; in the experiment on HOP-62 it was > 100 µM (inactive); with LXFL 529, > 100 µM (inactive). The GI50 with NCI-H226, in the experiment on NCI-H23, in the experiment with RPMI-8226, in the experiment with SK-MEL-2, with SK-OV-3 and in the experiment on SN12C was > 100 µM (inactive) throughout. In addition, the GI50 with SW-620 and with UACC-257 was > 100 µM (inactive) in each case.

Take `N#CC(C(=O)/C(=N\Nc1nc(S)nn1N)C(C#N)c1ccc(Cl)cc1)c1ccc(Cl)cc1` (centres undefined): the GI50 in the experiment with A498 is > 100 µM (inactive); in the experiment with COLO 205 it was > 100 µM (inactive); in the experiment on EKVX it was > 100 µM (inactive); in the experiment on HCT-15 it was over 100 µM; in the experiment on HOP-62, > 100 µM (inactive); in the experiment on LXFL 529 it was > 100 µM (inactive). Further, the GI50 in the experiment with NCI-H226, in the experiment with NCI-H23, in the experiment on RPMI-8226, in the experiment with SK-MEL-2, in the experiment with SK-OV-3 and in the experiment with SN12C was > 100 µM (inactive) throughout. The GI50 with SW-620 and in the experiment with UACC-257 was > 100 µM (inactive) in each case.

In the case of `COc1ccc(C(C#N)Cc2cc(OC)c(OC)c(OC)c2)cc1` (centres undefined), the GI50 is 17.4 µM (inactive) in the experiment with A498; 28.8 µM (inactive) in the experiment on CCRF-CEM; 19.2 µM (inactive) with COLO 205; 40.7 µM (inactive) in the experiment with EKVX; 17.8 µM with HCT-15; 22.3 µM (inactive) with HOP-62. The GI50 was 41.8 µM (inactive) with LXFL 529; 28.2 µM (inactive) with MOLT-4; 94.2 µM (inactive) in the experiment on NCI-H226; 23.4 µM (inactive) with RPMI-8226; 41.3 µM (inactive) in the experiment with SN12C; 15.7 µM (inactive) with SW-620. For the same compound, the GI50 with UACC-257 was 50.5 µM (inactive).

Take `C=C1C(=O)O[C@@H]2C[C@]3(C)CC[C@]4(C)[C@H](CC[C@@H]5[C@@]6(C)CCC(=O)C(C)(C)[C@@H]6CC[C@]54C)[C@H]3[C@H]12` [OCHRACEOLIDE A]: the GI50 with A498 is 21 µM (inactive); in the experiment on CCRF-CEM it was 2.43 µM (inactive); in the experiment with COLO 205, 7.19 µM (inactive); with EKVX it was 19 µM (inactive); in the experiment on HCT-15, 12.5 µM; in the experiment on HOP-62, 23.5 µM (inactive). The GI50 in the experiment with Hs-578T is 31.6 µM (inactive); in the experiment on MDA-MB-435, 11.2 µM (inactive); in the experiment on MOLT-4, 2.31 µM (inactive); in the experiment with NCI-H226 it was 20 µM (inactive); in the experiment with NCI-H23 it was 23.7 µM (inactive); in the experiment on NCI/ADR-RES, 22.2 µM (inactive). Besides, the GI50 was 2.1 µM (inactive) in the experiment with RPMI-8226; 22.4 µM (inactive) in the experiment with SK-MEL-2; 24 µM (inactive) with SK-OV-3; 17.5 µM (inactive) in the experiment on SN12C; 14.9 µM (inactive) in the experiment with SR; 11.6 µM (inactive) in the experiment on SW-620. Also, in the experiment on UACC-257, the GI50 was 14.6 µM (inactive).
